Like-named read-outs stand apart in the source and are kept apart here.
What was measured:
[1] = target: GDP-bound NRAS wild-type protein (Homo sapiens, UniProt P01111); assay: Binding to NRAS by surface plasmon resonance (SPR), Single Cycle Kinetics; conditions: for NRAS/KRAS (ratio of KD value for NRAS to KD value for KRAS) / ratio of the KD value with respect to GDP-bound NRAS wild-type protein to the KD value with respect to KRAS: SPR; for NRAS/KRAS (ratio of KD value for NRAS to KD value for KRAS): GDP-bound NRAS wild-type protein vs GDP-bound KRAS wild-type protein; for NRAS/KRAS (ratio of KD value with respect to GDP-bound NRAS wild-type protein to KD value with respect to KRAS): SPR KD ratio NRAS/KRAS, class symbols
Chain of GDP-bound NRAS wild-type protein (P01111 whole entry): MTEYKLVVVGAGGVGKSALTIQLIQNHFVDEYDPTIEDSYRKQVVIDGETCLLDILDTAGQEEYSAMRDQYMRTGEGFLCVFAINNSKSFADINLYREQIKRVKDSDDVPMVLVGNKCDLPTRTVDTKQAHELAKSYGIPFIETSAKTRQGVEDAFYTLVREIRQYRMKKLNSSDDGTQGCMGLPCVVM

[2] = system: human lung cancer strain NCI-H441;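 also: cell proliferation inhibition after four days measured by CellTiter-Glo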
[3] = target: GDP-bound HRAS wild-type protein (Homo sapiens, UniProt P01112); assay: Binding to HRAS by surface plasmon resonance (SPR), Single Cycle Kinetics; conditions: for HRAS/KRAS (ratio of KD value for HRAS to KD value for KRAS) / ratio of the KD value with respect to GDP-bound HRAS wild-type protein to the KD value with respect to KRAS: SPR; for HRAS/KRAS (ratio of KD value for HRAS to KD value for KRAS): GDP-bound HRAS wild-type protein vs GDP-bound KRAS wild-type protein; for HRAS/KRAS (ratio of KD value with respect to GDP-bound HRAS wild-type protein to KD value with respect to KRAS): SPR KD ratio HRAS/KRAS, class symbols
Chain of GDP-bound HRAS wild-type protein (P01112 whole entry): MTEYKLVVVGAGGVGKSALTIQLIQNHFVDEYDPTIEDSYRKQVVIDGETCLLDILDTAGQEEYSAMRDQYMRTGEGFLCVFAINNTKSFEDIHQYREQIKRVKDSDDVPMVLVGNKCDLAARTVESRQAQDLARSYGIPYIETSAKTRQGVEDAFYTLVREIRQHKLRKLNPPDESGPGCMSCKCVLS

[4] = target: GDP-bound KRAS wild-type protein (Homo sapiens, UniProt P01116); assay: Binding to KRAS by surface plasmon resonance (SPR), Single Cycle Kinetics
Chain of GDP-bound KRAS wild-type protein (P01116 whole entry): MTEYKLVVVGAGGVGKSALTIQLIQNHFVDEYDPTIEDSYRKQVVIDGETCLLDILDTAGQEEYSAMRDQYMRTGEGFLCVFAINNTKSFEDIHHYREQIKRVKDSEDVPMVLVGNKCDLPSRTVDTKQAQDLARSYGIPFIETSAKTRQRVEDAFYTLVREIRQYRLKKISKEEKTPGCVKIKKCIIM

[5] = read-out: NCI-H441 cell proliferation inhibitory activity, 50% proliferation inhibitory concentration (IC50 value), NCI-H441, four days, CellTiter-Glo
[6] = SPR, Single Cycle Kinetics, 1:1 binding model, read-out: KD value with respect to GDP-bound KRAS wild-type protein
[7] = SPR, Single Cycle Kinetics, GDP-bound KRAS wild-type protein, read-out: KRAS KD
[8] = SPR Single Cycle Kinetics, GDP-bound KRAS wild-type protein, 1:1 binding model, read-out: KRAS KD
[9] = SPR, Single Cycle Kinetics, 1:1 binding model, GDP-bound KRAS wild-type protein, read-out: KRAS KD

| SMILES | NRAS/KRAS (ratio of KD value for NRAS to KD value for KRAS) [1] | HRAS/KRAS (ratio of KD value for HRAS to KD value for KRAS) [3] | NRAS/KRAS (ratio of KD value with respect to GDP-bound NRAS wild-type protein to KD value with respect to KRAS) [1] | IC50 [2] [nM] | HRAS/KRAS (ratio of KD value with respect to GDP-bound HRAS wild-type protein to KD value with respect to KRAS) [3] | Kd [4, 8] [nM] | also measured |
| --- | --- | --- | --- | --- | --- | --- | --- |
| CCC[C@H]1C(=O)N[C@@H]([C@@H](C)CC)C(=O)N(C)CC(=O)N(C)[C@H]2C/C=C\CCN(C2=O)[C@@H](Cc2ccc(C(F)(F)F)cc2)C(=O)N(C)CC(=O)N[C@@H](CCc2ccc(C(F)(F)F)c(OC)c2)C(=O)N2C[C@H](OCC)C[C@H]2C(=O)N(C)C2(CCC2)C(=O)N(C)[C@@H](C2CCCC2)C(=O)N(C)[C@H](C(=O)N2CCCC2)CC(=O)N1C [PP3105, (2S,8S,12R,14S,20S,23S,27S,30S,36S,38Z)-20-cyclopentyl-12-ethoxy-8-[2-[3-methoxy-4-(trifluoromethyl)phenyl]ethyl]-4,16,19,22,26,32,35-heptamethyl-30-[(1S)-1-methylpropyl]-27-propyl-23-(pyrrolidine-1-carbonyl)-2-[[4-(trifluoromethyl)phenyl]methyl]spiro[1,4,7,10,16,19,22,26,29,32,35-undecazatricyclo[34.5.1.0^10,14]dotetracont-38-ene-17,1′-cyclobutane]-3,6,9,15,18,21,25,28,31,34,42-undecone] | AA (a compound having 20 or more is denoted as AA) | A (a compound having 10 or more and less than 20 is denoted as A) |  |  |  |  | ratio of the KD value with respect to GDP-bound NRAS wild-type protein to the KD value with respect to KRAS [1]: AA (a compound having 20 or more is denoted as AA); IC50 [2, 5]: 2.5 nM; ratio of the KD value with respect to GDP-bound HRAS wild-type protein to the KD value with respect to KRAS [3]: A (a compound having 10 or more and less than 20 is denoted as A); Kd [4, 6]: 0.06 nM; Kd [4, 7]: 0.06 nM |
| CC[C@H](C)[C@@H]1NC(=O)[C@H](COC)N(C)C(=O)C[C@@H](C(=O)N(C)C)N(C)C(=O)[C@H](C2CCCC2)N(C)C(=O)C2(CC(C)(C)C2)NC(=O)[C@@H]2C[C@@H](OC3CCCC3)CN2C(=O)[C@H](CCc2cc(F)c(C(F)(F)F)c(F)c2)NC(=O)CN(C)C(=O)[C@H](CC2CCC(F)(F)CC2)N2CC/C=C\C[C@@H](C2=O)N(C)C(=O)CN(C2CC2)C1=O [PP2634] |  |  | A (a compound having 10 or more and less than 20 is denoted as A) | 45.4 | A (a compound having 10 or more and less than 20 is denoted as A) | 0.68 |  |
| CC[C@H](C)[C@@H]1NC(=O)[C@@H]2CCCc3ccc(cc3)C[C@@H](C(=O)N(C)CC(=O)N[C@@H](CCc3ccc(C(F)(F)F)c(OC)c3)C(=O)N3C[C@H](OC4CCCC4)C[C@H]3C(=O)NC3(CC(C)(C)C3)C(=O)N(C)[C@@H](C3CCCC3)C(=O)N(C)[C@H](C(=O)N(C)CC)CC(=O)N2C)N2CC/C=C\C[C@@H](C2=O)N(C)C(=O)CN(C)C1=O [PP3086] | B (a compound having 3 or more and less than 10 is denoted as B) | B (a compound having 3 or more and less than 10 is denoted as B) |  |  |  |  | ratio of the KD value with respect to GDP-bound NRAS wild-type protein to the KD value with respect to KRAS [1]: B (a compound having 3 or more and less than 10 is denoted as B); IC50 [2, 5]: 7.9 nM; ratio of the KD value with respect to GDP-bound HRAS wild-type protein to the KD value with respect to KRAS [3]: B (a compound having 3 or more and less than 10 is denoted as B); Kd [4, 7]: 0.2 nM |
| CCC[C@H]1C(=O)N[C@@H]([C@@H](C)CC)C(=O)N(C)CC(=O)N(C)[C@H]2C/C=C\CCN(C2=O)[C@@H](Cc2ccc(C(F)(F)F)cc2)C(=O)N(C)CC(=O)N[C@@H](CCc2cc(F)c(C(F)(F)F)c(F)c2)C(=O)N2C[C@H](OCC)C[C@H]2C(=O)NC2(CCC2)C(=O)N(C)[C@@H](C2CCCC2)C(=O)N(C)[C@H](C(=O)N2CC3CCC(C2)O3)CC(=O)N1C [PP1315] |  |  |  | 34.5 |  |  | NRAS/KRAS (ratio of KD value for NRAS to KD value for KRAS) ([1]; KD ratio class): AA (a compound having 20 or more is denoted as AA); HRAS/KRAS (ratio of KD value for HRAS to KD value for KRAS) ([3]; KD ratio class): A (a compound having 10 or more and less than 20 is denoted as A); Kd [4, 9]: 0.34 nM |
| CC[C@H](C)[C@@H]1NC(=O)[C@H](CC2CC2)N(C)C(=O)C[C@@H](C(=O)N2CCOCC2)N(C)C(=O)[C@H](C2CCCC2)N(C)C(=O)C2(CCCC2)NC(=O)[C@@H]2CCCN2C(=O)[C@H](CCc2ccc(C(F)(F)F)c(Cl)c2)NC(=O)CN(C)C(=O)[C@H](Cc2ccc(C(F)(F)F)cc2)N2C[C@H](C)CC[C@@H](C2=O)N(C)C(=O)CN(C)C1=O [PP1343] |  |  |  | 19.3 |  |  | NRAS/KRAS (ratio of KD value for NRAS to KD value for KRAS) ([1]; KD ratio class): A (a compound having 10 or more and less than 20 is denoted as A); HRAS/KRAS (ratio of KD value for HRAS to KD value for KRAS) ([3]; KD ratio class): B (a compound having 3 or more and less than 10 is denoted as B); Kd [4, 9]: 0.27 nM |
| CCC[C@H]1C(=O)N[C@@H]([C@@H](C)CC)C(=O)N2CCC[C@H]2C(=O)N(C)[C@H]2C/C=C\CCN(C2=O)[C@@H](Cc2ccc(C(F)F)cc2)C(=O)N(C)CC(=O)N[C@@H](CCc2ccc(Cl)c(Cl)c2)C(=O)N2C[C@H](OC3CCC3)C[C@H]2C(=O)NC2(CC(C)(C)C2)C(=O)N(C)[C@@H](C(CC)CC)C(=O)N(C)[C@H](C(=O)N(C)C)CC(=O)N1C [PP2646] |  |  | AA (a compound having 20 or more is denoted as AA) | 92.6 | A (a compound having 10 or more and less than 20 is denoted as A) | 1.6 |  |
| CC[C@H](C)[C@@H]1NC(=O)[C@@H]2CCCCc3ccc(cc3)C[C@@H](C(=O)N(C)CC(=O)N[C@@H](CCc3ccc(C(F)(F)F)c(OC)c3)C(=O)N3CC4(CC4)C[C@H]3C(=O)NC3(CC(C)(C)C3)C(=O)N(C)[C@@H](C3CCCC3)C(=O)N(C)[C@H](C(=O)N(C)CC)CC(=O)N2C)N2CC/C=C\C[C@@H](C2=O)N(C)C(=O)CN(C)C1=O [PP3081] | A (a compound having 10 or more and less than 20 is denoted as A) | B (a compound having 3 or more and less than 10 is denoted as B) |  |  |  |  | ratio of the KD value with respect to GDP-bound NRAS wild-type protein to the KD value with respect to KRAS [1]: A (a compound having 10 or more and less than 20 is denoted as A); IC50 [2, 5]: 1.9 nM; ratio of the KD value with respect to GDP-bound HRAS wild-type protein to the KD value with respect to KRAS [3]: B (a compound having 3 or more and less than 10 is denoted as B); Kd [4, 6]: 0.068 nM |
| CCO[C@@H]1C[C@H]2C(=O)NC3(CCC3)C(=O)N(C)[C@@H](C3CCCC3)C(=O)N(C)[C@H](C(=O)N3CCOCC3)CC(=O)N(C)[C@@H](CC)C(=O)N[C@@H]([C@@H](C)CC)C(=O)N3CC[C@H]3C(=O)N(C)[C@H]3CC[C@@H](C)CN(C3=O)[C@@H](Cc3ccc(C(F)(F)F)cc3)C(=O)N(C)CC(=O)N[C@@H](CCc3ccc(C(F)(F)F)c(Cl)c3)C(=O)N2C1 [PP1375] |  |  |  | 11.5 |  |  | NRAS/KRAS (ratio of KD value for NRAS to KD value for KRAS) ([1]; KD ratio class): B (a compound having 3 or more and less than 10 is denoted as B); HRAS/KRAS (ratio of KD value for HRAS to KD value for KRAS) ([3]; KD ratio class): B (a compound having 3 or more and less than 10 is denoted as B); Kd [4, 9]: 0.23 nM |
| CCC[C@H]1C(=O)N[C@@H]([C@@H](C)CC)C(=O)N(C2CC2)CC(=O)N(C)[C@H]2C/C=C\CCN(C2=O)[C@@H](Cc2ccc(C)cc2)C(=O)N(C)CC(=O)N[C@@H](CCc2ccc(Cl)c(Cl)c2)C(=O)N2C[C@H](OCC)C[C@H]2C(=O)NC2(CC(C)(C)C2)C(=O)N(C)[C@@H](CC(C)(C)C)C(=O)N(C)[C@H](C(=O)N(C)C)CC(=O)N1C [PP2726] |  |  | AA (a compound having 20 or more is denoted as AA) | 51 | A (a compound having 10 or more and less than 20 is denoted as A) | 1.1 |  |
| CCO[C@H](C)[C@@H]1NC(=O)[C@H](CC(C)C)N(C)C(=O)C[C@@H](C(=O)N(C)CC)N(C)C(=O)[C@H](C2CCCC2)N(C)C(=O)C2(CC(C)(C)C2)NC(=O)[C@@H]2C[C@H](C)CN2C(=O)[C@H](CCc2ccc(C(F)(F)F)c(OC)c2)NC(=O)CN(C)C(=O)[C@H](Cc2ccc(C)cc2)N2CC/C=C\C[C@@H](C2=O)N(C)C(=O)CN(C)C1=O [PP2413] | A (a compound having 10 or more and less than 20 is denoted as A) | A (a compound having 10 or more and less than 20 is denoted as A) |  | 115 |  |  | Kd [4, 7]: 0.25 nM |
| CCC[C@H]1C(=O)N[C@@H](CC(C)C)C(=O)N2C[C@@H](OC)C[C@H]2C(=O)N(C)[C@H]2C/C=C\CCN(C2=O)[C@@H](Cc2ccc(C)cc2)C(=O)N(C)CC(=O)N[C@@H](CCc2ccc(C(F)(F)F)c(Cl)c2)C(=O)N2C[C@H](OCC)C[C@H]2C(=O)NC2(CCC2)C(=O)N(C)[C@@H](C2CCCC2)C(=O)N(C)[C@H](C(=O)N(C)C)CC(=O)N1C [PP2549] |  |  | A (a compound having 10 or more and less than 20 is denoted as A) | 506 | B (a compound having 3 or more and less than 10 is denoted as B) | 6 |  |

Source: US20240158446A1, “CYCLIC COMPOUND HAVING SELECTIVE INHIBITORY ACTION ON KRAS OVER HRAS AND NRAS” (CHUGAI SEIYAKU KABUSHIKI KAISHA, priority 2021, published 2024)
